According to patent US20110117164A1, “Use of Additive Sites to Control Nitric Oxide Release from Nitric Oxide Donors Contained within Polymers” (priority 2004, published 2011):

Assays:
[1] = Organic phase pH of polymer films monitored with chromoionophore II (UV-Vis); format: physicochemical; details: PVC films with 5 wt. % donor, PBS buffer; protonated 650 nm, deprotonated 514 nm
Source text: To determine, experimentally, if the pH within the film was changing with time, a lipophilic pH chromoionophore was incorporated into PVC films containing 5 wt. % of 2d, both in the presence and absence of KTpClPB. The intensity of the UV-Vis absorbances corresponding to the protonated (λmax=650 nm) and deprontonated (λmax=514 nm) peaks of the chromoionophore were monitored with time spectrophotometrically. […] This further supports the notion that as NO is being released from within the polymer phase, the unreacted diazeniumdiolate groups may require a buffering system to prevent the film from becoming too basic, which in turn may slow further diazeniumdiolate decomposition.
General Procedure for Deprotection to Form Diamine Copolymer (c). 35 mg of the copolymer (b) was dissolved in 2 mL of dichloromethane and then 200 μL of TFA (trifluoroacetic acid) was added dropwise. The solution was stirred at room temperature for about 3 hours. […] The data was recorded as a concentration of NO in PPB or PPM. The total amount of NO released (in moles) was determined by multiplying a constant (specific to each instrument, units of mol ppm^−1 s^−1) by the time interval that data was collected and the concentration. pH Experiments. […]

[2] = Thermal gravimetric analysis under nitrogen (thermal stability of diazeniumdiolates); format: physicochemical; details: nitrogen atmosphere

## CCCCNCCCCCCN(CCCC)/[N+]([O-])=N/O [Compound 2d, (Z)-1-{N-Butyl-N-[6-(N-butylammoniohexyl)amino]}-diazen-1-ium-1,2-diolate]
[1]
  change of chromoionophore peaks with exposure time, films containing KTpClPB: the intensity of the protonated peak remains constant
  change of chromoionophore peaks with exposure time, films without KTpClPB: an increase in the absorbance of the deprotonated peak and a decrease in the protonated peak
[2]
  TNO loss (stable up to): 104 °C
